Results taken from patent publication US20230374038A1, “MODULATORS OF CYSTIC FIBROSIS TRANSMEMBRANE CONDUCTANCE REGULATOR” (VERTEX PHARMACEUTICALS INCORPORATED, priority 2020, published 2023).

Target: T1, CFTR (Homo sapiens, UniProt P13569, DEL508-508)
T1 construct: endogenous in cells; host or cells: primary human bronchial epithelial cells, F508del/MF genotype
Experiment: HBE Assay: Ussing chamber assay of CFTR-mediated short-circuit currents in F508del/MF-HBE cells with 1 μM Ivacaftor
Format: cell-based
Conditions: with 1 μM Ivacaftor, 20% human serum; for EC50 / HBE Max Activity: 18-24 hours; for HBE Activity at 10 μM: single fixed concentration of 10 μM
Description: Ussing chamber experiments were performed using human bronchial epithelial (HBE) cells derived from CF subjects heterozygous for F508del and a minimal function CFTR mutation (F508del/MF-HBE) and cultured as previously described (Neuberger T, Burton B, Clark H, Van Goor F Methods Mol Biol 2011:741:39-54). After four days the apical media was removed, and the cells were grown at an air liquid interface for >14 days prior to use.
(§1) To isolate the CFTR-mediated short-circuit (ISC) current, F508del/MF-HBE grown on Costar® Snapwell™ cell culture inserts were mounted in an Ussing chamber and the transepithelial ISC was measured under voltage-clamp recording conditions (Vhold=0 mV) at 37° C. The basolateral solution contained (in mM) 145 NaCl, 0.83 K2HIPO4, 3.3 KH2PO4, 1.2 MgCl2, 1.2 CaCl2), 10 Glucose, 10 HEPES (pH adjusted to 7.4 with NaOH) and the apical solution contained (in mM) 145 NaGluconate, 1.2 MgCl2, 1.2 CaCl2), 10 glucose, 10 HEPES (pH adjusted to 7.4 with NaOH) and 30 μM amiloride to block the epithelial sodium channel. Forskolin (20 μM) was added to the apical surface to activate CFTR, followed by apical addition of a CFTR inhibitor cocktail consisting of BPO, GlyH-101, and CFTR inhibitor 172 (each at 20 μM final assay concentration) to specifically isolate CFTR currents. The CFTR-mediated ISC (μA/cm^2) for each condition was determined from the peak forskolin response to the steady-state current following inhibition.
The activity of the CFTR corrector compounds on the CFTR-mediated ISC was determined in Ussing chamber studies as described above. The F508del/MF-HBE cell cultures were either incubated with the corrector compounds at a range of concentrations in combination with 1 μM Ivacaftor or were incubated with the corrector compounds at a single fixed concentration of 10 μM in combination with 1 μM Ivacaftor for 18-24 hours at 37° C. and in the presence of 20% human serum. The concentration of corrector compounds with 1 μM Ivacaftor during the 18-24 hours incubations was kept constant throughout the Ussing chamber measurement of the CFTR-mediated ISC to ensure compounds were present throughout the entire experiment.
as §1, with “K2HPO4,” for “K2HIPO4,”

T1 sequence (P13569 with tags, fused parts or gaps DEL508-508): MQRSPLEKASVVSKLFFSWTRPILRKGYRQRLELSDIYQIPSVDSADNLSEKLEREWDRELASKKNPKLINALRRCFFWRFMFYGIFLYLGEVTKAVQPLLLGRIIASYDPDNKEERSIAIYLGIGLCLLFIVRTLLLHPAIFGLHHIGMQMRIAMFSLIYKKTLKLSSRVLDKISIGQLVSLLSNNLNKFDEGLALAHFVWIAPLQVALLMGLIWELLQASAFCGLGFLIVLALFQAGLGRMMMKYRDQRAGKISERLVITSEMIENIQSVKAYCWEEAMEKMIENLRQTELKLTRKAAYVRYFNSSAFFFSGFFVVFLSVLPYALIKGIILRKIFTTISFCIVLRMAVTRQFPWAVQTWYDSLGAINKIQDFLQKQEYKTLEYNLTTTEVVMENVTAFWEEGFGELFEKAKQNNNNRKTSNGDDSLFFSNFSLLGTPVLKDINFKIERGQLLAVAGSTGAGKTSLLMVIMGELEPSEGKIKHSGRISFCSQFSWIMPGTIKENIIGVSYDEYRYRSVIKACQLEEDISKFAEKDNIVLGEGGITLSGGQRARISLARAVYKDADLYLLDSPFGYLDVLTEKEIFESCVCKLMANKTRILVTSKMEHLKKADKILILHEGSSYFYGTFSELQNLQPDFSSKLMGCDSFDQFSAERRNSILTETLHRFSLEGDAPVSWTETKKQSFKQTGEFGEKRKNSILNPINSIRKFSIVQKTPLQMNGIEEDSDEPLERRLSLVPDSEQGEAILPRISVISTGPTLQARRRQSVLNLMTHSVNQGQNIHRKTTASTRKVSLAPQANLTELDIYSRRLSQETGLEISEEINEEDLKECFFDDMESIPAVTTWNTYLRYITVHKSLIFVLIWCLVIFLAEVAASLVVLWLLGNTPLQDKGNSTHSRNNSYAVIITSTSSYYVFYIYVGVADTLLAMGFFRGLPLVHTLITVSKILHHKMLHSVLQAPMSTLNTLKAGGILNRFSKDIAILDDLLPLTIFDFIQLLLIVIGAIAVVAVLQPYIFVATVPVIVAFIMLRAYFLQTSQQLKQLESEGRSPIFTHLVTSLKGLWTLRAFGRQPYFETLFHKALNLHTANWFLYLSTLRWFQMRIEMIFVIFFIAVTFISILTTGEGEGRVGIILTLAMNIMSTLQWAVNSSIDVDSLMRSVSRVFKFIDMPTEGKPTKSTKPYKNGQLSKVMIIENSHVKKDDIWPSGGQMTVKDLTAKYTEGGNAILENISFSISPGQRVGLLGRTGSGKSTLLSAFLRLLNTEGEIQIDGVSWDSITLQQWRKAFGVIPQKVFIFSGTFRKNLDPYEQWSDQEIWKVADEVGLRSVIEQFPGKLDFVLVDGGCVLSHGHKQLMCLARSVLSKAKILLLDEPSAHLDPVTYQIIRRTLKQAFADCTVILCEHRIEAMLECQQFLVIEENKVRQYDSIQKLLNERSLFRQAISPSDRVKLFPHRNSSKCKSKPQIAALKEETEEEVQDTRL

Row | Compound | EC50 | HBE Max Activity | HBE Activity at 10 μM
1 | COCCN(C)c1cnc(CN2C(=O)c3cccc(c3)S(=O)(=O)Nc3nc(c(C)c(-c4c(C)cccc4CC4CCCCC4)n3)OC[C@H]2CC(C)(C)C)nc1 [Compound 283] | < 1000 nM | +++ (+++ is >600%) | –
2 | Cc1cccc(CC2CCCC2)c1-c1nc2nc(c1C)OC[C@@H](CC(C)(C)C)NC(=O)c1cccc(c1)S(=O)(=O)N2 (atropisomer, axis not shown) [Compound 225] | – | – | +++ (+++ is >600%)
3 | Cc1cccc(CC(C)C)c1-c1nc2nc(c1C(F)(F)F)OC[C@@H](CC(C)(C)C)N(Cc1ccc(N3CCOCC3)cn1)C(=O)c1cccc(c1)S(=O)(=O)N2 (atropisomer, axis not shown) [Compound 247] | – | – | ++ (++ is 30-60%)
4 | Cc1cccc(CC(C)C)c1-c1nc2nc(c1C)OC[C@@H](CC(C)C)N(Cc1cnc(C3CCOCC3)cn1)C(=O)c1cccc(c1)S(=O)(=O)N2 (atropisomer, axis not shown) [Compound 315] | – | – | +++ (+++ is >600%)
5 | Cc1cccc(CC(C)(C)C)c1-c1nc2nc(c1C)OC[C@@H](CC(C)(C)C)N(Cc1ncc(N3CCC(C)(C)C3)cn1)C(=O)c1cccc(c1)S(=O)(=O)N2 (atropisomer, axis not shown; (M)) [Compound 214, (5M,11R)-11-(2,2-dimethylpropyl)-6-[2-(2,2-dimethylpropyl)-6-methylphenyl]-12-{[5-(3,3-dimethylpyrrolidin-1-yl)pyrimidin-2-yl]methyl}-7-methyl-9-oxa-2λ^6-thia-3,5,12,19-tetraazatricyclo[12.3.1.14,8]nonadeca-1(17),4(19),5,7,14(18),15-hexaene-2,2,13-trione] | – | – | ++ (++ is 30-60%)
6 | Cc1cccc(CC(C)C)c1-c1nc2nc(c1C)OC[C@@H](C(C)C)N(Cc1ncc(N3CCC(C)(C)C3)cn1)C(=O)c1cccc(c1)S(=O)(=O)N2 [Compound 240] | 1000 to 3000 nM | +++ (+++ is >600%) | –
7 | Cc1cccc(CC2CCCCC2)c1-c1nc2nc(c1C)OC[C@@H](CC(C)(C)C)N(Cc1ncccc1N1CCOCC1)C(=O)c1cccc(c1)S(=O)(=O)N2 (atropisomer, axis not shown) [Compound 310] | < 1000 nM | +++ (+++ is >600%) | –
8 | Cc1cccc(C(C)C)c1-c1nc2nc(c1C)OC[C@@H](CC(C)(C)C)N(Cc1ccc(N3CCOCC3)cn1)C(=O)c1cccc(c1)S(=O)(=O)N2 (atropisomer, axis not shown) [Compound 300] | < 1000 nM | +++ (+++ is >600%) | –
9 | Cc1cccc(CC(C)C)c1-c1nc2nc(c1C)OC[C@@H](CC(C)(C)C)N(Cc1cnc(C3CCOCC3)cn1)C(=O)c1cccc(c1)S(=O)(=O)N2 (atropisomer, axis not shown) [Compound 313] | < 1000 nM | +++ (+++ is >600%) | –
10 | Cc1cccc(COC(C)C)c1-c1nc2nc(c1C)OC[C@@H](CC(C)(C)C)N(Cc1nccc(N(C)C(C)C)n1)C(=O)c1cccc(c1)S(=O)(=O)N2 (atropisomer, axis not shown) [Compound 230] | – | – | +++ (+++ is >600%)
11 | Cc1cccc(CC2CCCCC2)c1-c1nc2nc(c1C)OC[C@@H](CC(C)(C)C)N(Cc1cccc(N(C)CC(C)(C)C)n1)C(=O)c1cccc(c1)S(=O)(=O)N2 (atropisomer, axis not shown) [Compound 259] | < 1000 nM | +++ (+++ is >600%) | –
12 | Cc1cccc(CC2CCCCC2)c1-c1nc2nc(c1C)OC[C@@H](CC(C)(C)C)N(Cc1ncc(N3CCC(C)(C)C3)cn1)C(=O)c1cccc(c1)S(=O)(=O)N2 (atropisomer, axis not shown) [Compound 254] | 1000 to 3000 nM | +++ (+++ is >600%) | –
13 | Cc1cccc(CC2CCCCC2)c1-c1nc2nc(c1C)OC[C@@H](CC(C)(C)C)N(Cc1ncc(C3CCOCC3)cn1)C(=O)c1cccc(c1)S(=O)(=O)N2 [Compound 251] | < 1000 nM | +++ (+++ is >600%) | –
14 | Cc1cccc(CC2CCCCC2)c1-c1nc2nc(c1C(F)(F)F)OC[C@@H](CC(C)(C)C)N(Cc1ncc(N3CCOCC3)cn1)C(=O)c1cccc(c1)S(=O)(=O)N2 (atropisomer, axis not shown) [Compound 244] | < 1000 nM | +++ (+++ is >600%) | –
15 | Cc1cccc(CC2CCCCC2)c1-c1nc2nc(c1C)OC[C@@H](CC(C)(C)C)N(Cc1ccc(OC(C)C)cn1)C(=O)c1cccc(c1)S(=O)(=O)N2 (atropisomer, axis not shown) [Compound 279] | 1000 to 3000 nM | +++ (+++ is >600%) | –
16 | Cc1cccc(CC2CCCC2)c1-c1nc2nc(c1C)OC[C@@H](CC(C)(C)C)N(Cc1cccc(N(C)C(C)C)n1)C(=O)c1cccc(c1)S(=O)(=O)N2 (atropisomer, axis not shown) [Compound 273] | < 1000 nM | +++ (+++ is >600%) | –
17 | Cc1cccc(CC2CCCCC2)c1-c1nc2nc(c1C)OC[C@@H](CC(C)(C)C)N(Cc1ncc(N(C)C)cn1)C(=O)c1cccc(c1)S(=O)(=O)N2 (atropisomer, axis not shown) [Compound 304] | < 1000 nM | +++ (+++ is >600%) | –
18 | Cc1cccc(C)c1-c1nc2nc(c1C)OC[C@@H](CC(C)C)N(Cc1ncc(N3CCC(C)(C)C3)cn1)C(=O)c1cccc(c1)S(=O)(=O)N2 [Compound 199] | < 1000 nM | +++ (+++ is >600%) | –
19 | Cc1cccc(CC2CCOCC2)c1-c1nc2nc(c1C)OC[C@@H](CC(C)(C)C)N(Cc1ncc(N3CCOCC3)cn1)C(=O)c1cccc(c1)S(=O)(=O)N2 (single isomer, unassigned) [Compound 218] | < 1000 nM | +++ (+++ is >600%) | –
20 | Cc1cccc(CC(C)C)c1-c1nc2nc(c1C)OC[C@@H](CC(C)C)N(Cc1cccc(N3CCC[C@H]3C)n1)C(=O)c1cccc(c1)S(=O)(=O)N2 (atropisomer, axis not shown) [Compound 237] | < 1000 nM | +++ (+++ is >600%) | –
21 | Cc1cccc(CC2CCOCC2)c1-c1nc2nc(c1C)OC[C@@H](CC(C)(C)C)N(Cc1ncc(N3CCOCC3)cn1)C(=O)c1cccc(c1)S(=O)(=O)N2 (atropisomer, axis not shown; (M)) [Compound 217, (5M,11R)-11-(2,2-dimethylpropyl)-7-methyl-6-{2-methyl-6-[(oxan-4-yl)methyl]phenyl}-12-{[5-(morpholin-4-yl)pyrimidin-2-yl]methyl}-9-oxa-2λ^6-thia-3,5,12,19-tetraazatricyclo[12.3.1.14,8]nonadeca-1(17),4(19),5,7,14(18),15-hexaene-2,2,13-trione] | – | – | ++ (++ is 30-60%)
22 | Cc1cccc(CC(C)C)c1-c1nc2nc(c1C)OC[C@@H](CC(C)(C)C)N(Cc1cncc(N(C)C(C)C)n1)C(=O)c1cccc(c1)S(=O)(=O)N2 (atropisomer, axis not shown) [Compound 238] | < 1000 nM | +++ (+++ is >600%) | –
23 | Cc1cccc(C(C)C)c1-c1nc2nc(c1C)OC[C@@H](CC(C)(C)C)N(Cc1ncc(N3CCOCC3)cn1)C(=O)c1cccc(c1)S(=O)(=O)N2 (single isomer, unassigned) [Compound 208] | < 1000 nM | +++ (+++ is >600%) | –
24 | Cc1cccc(C(C)C)c1-c1nc2nc(c1C)OC[C@@H](CC(C)(C)C)N(Cc1ccc(N3CCOCC3)cn1)C(=O)c1cccc(c1)S(=O)(=O)N2 (atropisomer, axis not shown) [Compound 299] | < 1000 nM | +++ (+++ is >600%) | –
25 | Cc1cccc(CC(C)C)c1-c1nc2nc(c1C)OC[C@@H](CC(C)(C)C)N(Cc1ncc(CC(C)C)cn1)C(=O)c1cccc(c1)S(=O)(=O)N2 (atropisomer, axis not shown) [Compound 264] | < 1000 nM | +++ (+++ is >600%) | –
26 | Cc1cccc(CC2CCOCC2)c1-c1nc2nc(c1C)OC[C@@H](CC(C)(C)C)N(Cc1ccc(N3CCOCC3)cn1)C(=O)c1cccc(c1)S(=O)(=O)N2 (atropisomer, axis not shown) [Compound 274] | – | – | ++ (++ is 30-60%)
